Reference: US8318815B2, “Method for treatment of tumors using nordihydroguaiaretic acid derivatives” (priority 1999, dated 2012)

How the values were obtained:
HSV-1 = HSV-1 skin infection in guinea pig, topical treatment; type: in vivo
Experimental: The drug M4N was also tested in inhibition of HSV-1 replication in skin infections in guinea pigs. Guinea pig skin was pinched with needles and HSV-1 […] was applied topically to infect each pricked area. M4N was then applied to the pricked infected area following infection daily for 6 days.
Six areas of bared back skin of a guinea pig were punched sterilely with a 5=DIN needle. Two areas were infected with HSV-1 (HSV-C, culture supernatant, or isolated HSV in saline, HSV-SC). The other four areas were infected with HSV-SC.

TC-1 cell line = experiment: TC-1 cell growth; details: TC-1 cells
Experimental: FIG. 9. […] (a-d) C3, CEM-T4, C33a, and TC-1 cells were treated with different concentrations of M4N. The number of cells present at the initiation of the experiment is indicated as Day 0. After three days the number of viable cells were counted and plotted versus the M4N concentration. […] After 3 days, one-half of the M4N treated cells were given fresh media containing only 1% DMSO (M-D), while the rest of the cells were given fresh media with the same conditions (second media change). The cells were counted daily and plotted versus the time of treatment.

survivin gene expression = experiment: RT-PCR analysis of survivin gene expression in C3 cells; type: cell-based, mouse; details: 40 μM
Experimental: FIG. 17. RT-PCR Analysis of Survivin Gene Expression. […] Bottom: the corresponding GAPDH controls. Band intensities were quantitated with Scion Image. (b) Survivin RT-PCR product signals were normalized to those of the GAPDH controls and plotted.
M4N Treatment. C3 cells (5×10^6) were seeded in 150-mm plates and allowed to attach to the plates. Twenty-four hours after seeding, cultures were washed twice with PBS and treated with M4N dissolved in 1% DMSO mixed with the growth medium.
RT-PCR analysis. mRNA was isolated by the guanidinium thiocyanate and phenol method from the cultured cells as described in Molecular Cloning (40). […] The c-DNA products obtained were amplified under the PCR conditions: […], 60° C. for 55 seconds, and 72° C. for 1 minute for 30 cycles.

[1] = system: SP1-regulated HPV E6/E7 promoter; experiment: HPV16 LCR (P97 promoter) luciferase reporter assay in C33A cells; details: thirty hours after drug treatment
CEM-T4 cells = experiment: Cell cycle DNA content by propidium iodide flow cytometry, CEM-T4; details: CEMT4, 72 hours
Source text: The cells were trypsinized, fixed with ethanol, stained with propidium iodide, and were subsequently analyzed by flow cytommetry. […] The indicated stages of the cell cycle are labeled and correspond to the relative cellular DNA compliment as determined by staining intensity.

COc1ccc(C[C@@H](C)[C@@H](C)Cc2ccc(OC)c(OC)c2)cc1OC [M4N, tetra-O-methylnordihydroguaiaretic acid]
blisters in HSV-1 infected skin areas at day 6 (HSV-1; 30 μl of 60 mg/ml in DMSO, five times per day for six days): no blisters
shedding of the virus (HSV-1; 4 days after the drug treatment): no shedding of the virus
"threshold" concentration above which the percentage of viable cells decreases precipitously (TC-1 cell line): 40 µM
reduction in survivin expression (survivin gene expression; 24 hours): 65%
reduction in survivin expression (survivin gene expression; 72 hours): 80%
Sp1 regulated transcription initiation at the HPV E6/E7 promoter (specific luciferase activity) [1]: dramatically reduces
cells showing G2/M DNA content (CEM-T4 cells): > 90%
